Test results as given in US8496929B2, “Inotropic effects of antibodies on cardiac contraction” (priority 2002, dated 2013).
Entries after “also recorded” stand apart in the source; their conditions may differ.

Legend:
[1] = biological target: T1, digitalis-sensitive (Na++K+)-ATPase purified from dog kidney (Canis lupus familiaris, UniProt P50997); experiment: (Na++K+)-ATPase activity, digitalis-sensitive enzyme; format: biochemical; conditions: dog enzyme 16 nM; 24-400 nM
T1 construct: Highly purified dog kidney (Na^++K^+)-ATPase was a gift from Dr. Jack Kyte; tissue gift from Dr. Jack Kyte; host or cells: dog kidney
Method: The enzymatic activity was determined as described previously (Kyte J., et al., (1987) Biochemistry, 26:8350-8360) with modifications. Briefly, purified rat or dog (Na^++K^+)-ATPase was incubated with or without Jianye or ouabain in the presence of 100 mM Na^+ for 30 min at room temperature. The reaction was initiated by adding 3 mM MgATP and 20 mM K^+ in a final volume of 0.25 ml at 37° C. for 30 min and terminated by adding 0.75 ml quench solution and 0.025 ml developer. The color was allowed to develop for 30 min at room temperature and the concentration of phosphate was then determined at 700 nm using a spectrophotometer.
To investigate whether the binding of Jianye affects (Na^++K^+)-ATPase activity, we measured (Na^++K^+)-ATPase (100 nM) activity in the presence of 100 mM Na^+, 20 mM K^+, 3 mM MgATP, and various concentrations of Jianye or ouabain. […] To exclude the possibility that the inability of Jianye to inhibit enzymatic activity may be due to the digitalis-resistant nature of rat (Na^++K^+)-ATPase (FIG. 3), we tested the effect of Jianye on the digitalis-sensitive (Na^++K^+)-ATPase (16 nM) purified from dog kidney.

[2] = biological target: T2, digitalis-resistant rat (Na++K+)-ATPase (Rattus norvegicus, UniProt P06685); experiment: (Na++K+)-ATPase activity, digitalis-resistant enzyme; format: biochemical; conditions: enzyme 100 nM; 24-400 nM test agent; 100 mM Na+, 20 mM K+, 3 mM MgATP
T2 construct: the SL vesicles (4.4 mg/ml) were titrated with 0.58 mg/ml of SDS in the presence of 2 mM ATP; from tissue; host or cells: rat heart muscle; enzyme purified from SL vesicles by SDS titration and sucrose step gradient
Method: (§1) Rat cardiac sarcolemmal (SL) vesicles were isolated from rat heart muscle by sucrose flotation method. The vesicles were tested with saponin and were predominately right-side-out in orientation. (Na^++K^+)-ATPase was purified as described previously (Kyte, J. (1971) Biochemistry, 246:4157-4165). Briefly, the SL vesicles (4.4 mg/ml) were titrated with 0.58 mg/ml of SDS in the presence of 2 mM ATP at 20° C. for 30 min. The SDS titrated fractions were then loaded on the top of a sucrose (W/W) step gradient constructed with 10 ml of 37.3% (bottom step), 20 ml of 28.8%, and 10 ml of 15% in a Ti 60 tube, and centrifuged at 40,000 rpm for 90 min. The fractions that contain (Na^++K^+)-ATPase (between 37.3 and 28.8% on the sucrose gradient) were carefully collected and sedimented at 40,000 rpm for 60 minutes. […]
The enzymatic activity was determined as described previously (Kyte J., et al., (1987) Biochemistry, 26:8350-8360) with modifications. […] The color was allowed to develop for 30 min at room temperature and the concentration of phosphate was then determined at 700 nm using a spectrophotometer.
To investigate whether the binding of Jianye affects (Na^++K^+)-ATPase activity, we measured (Na^++K^+)-ATPase (100 nM) activity in the presence of 100 mM Na^+, 20 mM K^+, 3 mM MgATP, and various concentrations of Jianye or ouabain. […]

(Na++K+)-ATPase = experiment: [3H]ouabain binding to cardiac sarcolemmal vesicles; design: species or system rat; conditions: PB added to Jianye prior to [3H]ouabain
Method: as §1, with “minutes. The purified enzyme was resuspended in a sucrose (250 mM)/histidinium chloride (30 mM) buffer, pH 7.2, quick-frozen in liquid nitrogen and stored at −70° C.” for “minutes.”
Cardiac SL vesicles (3 mg/ml) were incubated with or without various concentrations of Jianye antibody for 30 minutes at room temperature in a medium containing 1 mM MgATP, 100 mM NaCl, and 10 mM Tris/HCl buffer (ph 7.4). […] An aliquot (20 or 50 Ml) was taken from each sample and radioactivity determined using a β-scintillation counter. The percent of [^3H]ouabain binding to the enzyme was then calculated. […]

rat ventricular myocytes = experiment: Cell contraction and confocal Ca2+ transients in single ventricular myocytes; format: cell-based; conditions: PB (PB95, 20 μM) mixed with Jianye prior to administration
Method: Ventricular cardiac myocytes were isolated from adult Sprague-Dawley rats (2-3 months old; weight 225-300 g) using standard enzymatic techniques. Briefly, following anesthesia (sodium pentobarbital, 100 mg/kg), the heart was quickly removed from the chest and aortic perfused at constant pressure (100 cmH2O) at 37° C. for 3 minutes with a Ca^2+-free bicarbonate-based buffer containing 120 mM NaCl, 5.4 mM MgSO4, 1.2 mM NaH2PO4, 5.6 mM glucose, 20mM NaHCO3, and 5 mM taurine, in the presence of O2 (95%)-CO2 (5%). The enzymatic digestion was initiated by adding collagenase (Worthington Type II, 1 mg/ml) to the perfusion solution. Calcium (50 μM) was added to the enzyme solution when the heart became swollen. […]
Myocytes were placed on an inverted microscope (Zeiss model IM-35), superfused with HEPES-buffered solution at a flow rate of 1.8 ml/min, and electrically stimulated at 0.5 Hz at 23° C. Cell length was monitored from the bright field image (650 nm to 750 nm red light illumination) by an optical edge-tracking method using a photodiode array (model 1024 SAQ, Reticon) with a 3 ms time resolution. The contraction amplitude was measured as the percentage of shortening of cell length. […]
We next determined whether the binding of Jianye to the (Na^++K^+)-ATPase affects cardiac contractility. […]

Compound	effect on dog (Na++K+)-ATPase enzymatic activity [1]	inhibition of ATP hydrolysis [1]	inhibition of rat (Na++K+)-ATPase activity [2]	[3H]ouabain labeling when Jianye is saturated by peptide blocker (effect on Jianye antagonism) ((Na++K+)-ATPase)	blocking of Jianye-induced increases in Ca2+ transients and contraction (rat ventricular myocytes)	blocking of Jianye-induced increases in Ca2+ transients and contraction (rat ventricular myocytes; listed as PB95)
C[C@@H]1O[C@@H](O[C@H]2C[C@@H](O)[C@]3(CO)[C@H]4[C@H](O)C[C@]5(C)[C@@H](C6=CC(=O)OC6)CC[C@]5(O)[C@@H]4CC[C@]3(O)C2)[C@H](O)[C@H](O)[C@H]1O [ouabain]	reduced the enzymatic activity	up to 47%	did not inactivate			
KRQPRNPKTDKLVNE [PB]				not affected; also recorded: eliminated this antagonist effect	largely abolished; also recorded: completely abolished	largely impeded
